Experimental data as given in patent US20100255004A1, “RECEPTOR TYROSINE KINASE PROFILING” (Dana Farber Cancer Institute, priority 2007, published 2010).
Where a name gives a salt, the structure may show the parent alone.

Legend:
[1] = molecular target: T1, MET (Homo sapiens, UniProt P08581); assay: Immunoblot of P-MET in LN382 and LN18 cells; format: cell-based; set-up: endogenous in cells; host or cells: LN382 and LN18 glioma cells; settings: 1 μM, 24 hours (FIG. 4F)
Description: A-E. The glioma cell lines LN18 (wt PTEN), SF767 (wt PTEN), LN382 (mut PTEN) and LNZ308 (mut PTEN) were incubated in 0.05% serum-containing medium cells and treated with 10 μM erlotinib (E or T), 10 μM SU11274 (S), and/or 10 μM imatinib (I or G) and immunoblotted as in FIG. 3. […] LN382 and LN18 cells were treated with 1 μM each RTK inhibitor for 24 hours, then immunoblotted with antibodies to P-PDGFRβ and P-MET.

[2] = system: PI3K signaling (p85α/GAB1 complex, P-AKT, P-S6); assay: GAB1 immunoprecipitation and immunoblots of P-AKT and P-S6 in U87MG-EGFR* cells; format: cell-based, human; settings: U87MG-EGFR* cells (PTEN mutant), 10 μM each inhibitor (FIG. 3C)
Description: U87MG parental cells or cells constitutively expressing wt EGFR, the activating vIII deletion mutant (EGFR*) or the vIII mutant with an inactivating mutation in its kinase domain (EGFR*-KD) were immunoprecipitated with an antibody to the RTK/PI-3K adaptor protein, GAB1 (left panel), then immunoblots were probed with the indicated antibodies. […] Whole cell extracts (WCE) from the same cells were immunoblotted with the indicated antibodies. […] C. […] Bottom panel: Un-immunoprecipitated whole cell extracts were immunoblotted with the indicated antibodies. […] Error bars indicate SEM, n=4. […] U87MG-EGFR* cells were transfected with empty vector, HRASV12, myristoylated-AKT, or p110α-CAAX, then treated with 10 μM each of erlotinib (E), SU11274 (S), and imatinib (I) in 0.05% serum-containing medium for 72 hours prior to assaying cell viability.
We also immunoblotted whole cell extracts with antibodies against MAPK and phosphorylated versions of AKT, MAPK, and S6 (FIG. 3C, bottom panel):
Following 30 min incubation in lysis buffer at 4° C., lysates were cleared by centrifugation at 10 k 10 min 4° C., then protein concentrations were determined by BioRad DC Protein Assay. […] Co-immunoprecipitated proteins were detected with either mouse or rabbit TrueBlot HRP conjugated secondaries (eBioscience). • Antibody arrays.

[3] = molecular target: T2, PDGFRβ (Homo sapiens, UniProt P09619); assay: Immunoblot of P-PDGFRβ in LN382 and LN18 cells; format: cell-based; settings: 1 μM, 24 hours (FIG. 4F)
T2 construct: endogenous in cells; host or cells: LN382 and LN18 glioma cells
Source text: DNA is labeled with Hoechst 33342.

[4] = molecular target: T1, MET; assay: RTK antibody array, phosphorylation of MET in U87MG-EGFR* cells; format: cell-based; set-up: endogenous in cells; settings: 10 μM, RTK antibody array (FIG. 3B)
Description: Error bars indicate SEM, n=4.
Following 30 min incubation in lysis buffer at 4° C., lysates were cleared by centrifugation at 10 k 10 min 4° C., then protein concentrations were determined by BioRad DC Protein Assay. […] Tyrosine-phosphorylated proteins were visualized by separation on NuPAGE 3-8% Tris-Acetate gels (Invitrogen), blotted onto nitrocellulose, blocked with 3% Immunoblot Blocking Reagent (Upstate), then incubated with anti-phosphotyrosine antibody (4G10, Upstate). […] Co-immunoprecipitated proteins were detected with either mouse or rabbit TrueBlot HRP conjugated secondaries (eBioscience). • Antibody arrays. Cells were harvested as for immunoprecipitations above. Snap-frozen tumors were thawed in immunoprecipitation lysis buffer, homogenized by hand 50× with disposable 1.5 mL pestles, incubated 30 min 4° C. with inversion, homogenized 50×, then cleared by centrifugation at 10 k 10 min 4° C. Proteins were quantitated as above. RTK antibody arrays were purchased from R&D Systems (#ARY-001) and performed as recommended but with 2 mg protein lysate per array. • Soft agar colony formation.

[5] = system: PDGFR; assay: p-PDGFR in LNZ308 cells; format: cell-based, human
Source text: We then correlated inhibition of PI3K activity with biological effects of various combinations of RTK inhibitor treatment regimens. […] Second, we are mindful of the limitation of detection sensitivity by current antibody array technology and that a particular RTK may not be represented or be activated at an undetectable but biologically-relevant level. As shown in FIG. 4C-E, combination inhibition of RTKs in LN382 and LNZ308, both PTEN mutant GBM lines, effectively extinguished PI3K activity.

T1 sequence (P08581 25-1390): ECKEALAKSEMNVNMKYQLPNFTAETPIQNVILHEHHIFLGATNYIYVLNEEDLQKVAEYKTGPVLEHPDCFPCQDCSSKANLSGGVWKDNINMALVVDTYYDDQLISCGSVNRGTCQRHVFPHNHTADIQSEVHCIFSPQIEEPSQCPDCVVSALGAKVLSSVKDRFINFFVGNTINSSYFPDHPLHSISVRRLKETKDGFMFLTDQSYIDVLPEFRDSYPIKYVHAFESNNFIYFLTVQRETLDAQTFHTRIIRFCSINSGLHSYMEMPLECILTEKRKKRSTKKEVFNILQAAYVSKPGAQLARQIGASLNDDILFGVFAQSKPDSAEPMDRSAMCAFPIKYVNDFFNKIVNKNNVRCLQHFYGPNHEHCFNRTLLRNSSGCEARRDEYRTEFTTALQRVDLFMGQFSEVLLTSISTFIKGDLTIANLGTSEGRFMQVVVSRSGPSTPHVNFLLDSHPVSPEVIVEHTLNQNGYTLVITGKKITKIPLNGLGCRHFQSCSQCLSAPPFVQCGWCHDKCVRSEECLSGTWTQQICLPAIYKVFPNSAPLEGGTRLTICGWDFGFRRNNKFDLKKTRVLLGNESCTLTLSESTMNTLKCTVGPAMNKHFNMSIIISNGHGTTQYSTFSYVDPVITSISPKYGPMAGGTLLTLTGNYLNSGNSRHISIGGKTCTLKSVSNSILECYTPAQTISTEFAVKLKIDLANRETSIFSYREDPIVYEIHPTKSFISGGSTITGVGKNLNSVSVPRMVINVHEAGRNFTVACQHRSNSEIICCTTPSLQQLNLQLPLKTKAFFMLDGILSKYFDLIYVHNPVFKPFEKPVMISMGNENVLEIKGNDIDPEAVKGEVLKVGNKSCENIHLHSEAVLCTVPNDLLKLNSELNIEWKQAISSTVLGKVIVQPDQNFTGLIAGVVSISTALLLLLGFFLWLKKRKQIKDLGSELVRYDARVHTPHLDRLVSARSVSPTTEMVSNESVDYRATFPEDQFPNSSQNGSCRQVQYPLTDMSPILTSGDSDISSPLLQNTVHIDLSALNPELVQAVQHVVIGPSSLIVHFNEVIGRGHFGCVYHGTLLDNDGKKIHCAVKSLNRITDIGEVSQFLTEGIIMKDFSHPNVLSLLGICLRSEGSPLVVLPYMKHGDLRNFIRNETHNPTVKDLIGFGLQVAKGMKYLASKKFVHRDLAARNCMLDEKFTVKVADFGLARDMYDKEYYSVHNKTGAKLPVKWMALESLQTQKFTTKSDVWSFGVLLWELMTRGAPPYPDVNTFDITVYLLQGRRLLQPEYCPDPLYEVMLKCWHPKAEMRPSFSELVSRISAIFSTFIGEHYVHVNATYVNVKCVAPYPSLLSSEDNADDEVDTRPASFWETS
T2 sequence (P09619 33-1106): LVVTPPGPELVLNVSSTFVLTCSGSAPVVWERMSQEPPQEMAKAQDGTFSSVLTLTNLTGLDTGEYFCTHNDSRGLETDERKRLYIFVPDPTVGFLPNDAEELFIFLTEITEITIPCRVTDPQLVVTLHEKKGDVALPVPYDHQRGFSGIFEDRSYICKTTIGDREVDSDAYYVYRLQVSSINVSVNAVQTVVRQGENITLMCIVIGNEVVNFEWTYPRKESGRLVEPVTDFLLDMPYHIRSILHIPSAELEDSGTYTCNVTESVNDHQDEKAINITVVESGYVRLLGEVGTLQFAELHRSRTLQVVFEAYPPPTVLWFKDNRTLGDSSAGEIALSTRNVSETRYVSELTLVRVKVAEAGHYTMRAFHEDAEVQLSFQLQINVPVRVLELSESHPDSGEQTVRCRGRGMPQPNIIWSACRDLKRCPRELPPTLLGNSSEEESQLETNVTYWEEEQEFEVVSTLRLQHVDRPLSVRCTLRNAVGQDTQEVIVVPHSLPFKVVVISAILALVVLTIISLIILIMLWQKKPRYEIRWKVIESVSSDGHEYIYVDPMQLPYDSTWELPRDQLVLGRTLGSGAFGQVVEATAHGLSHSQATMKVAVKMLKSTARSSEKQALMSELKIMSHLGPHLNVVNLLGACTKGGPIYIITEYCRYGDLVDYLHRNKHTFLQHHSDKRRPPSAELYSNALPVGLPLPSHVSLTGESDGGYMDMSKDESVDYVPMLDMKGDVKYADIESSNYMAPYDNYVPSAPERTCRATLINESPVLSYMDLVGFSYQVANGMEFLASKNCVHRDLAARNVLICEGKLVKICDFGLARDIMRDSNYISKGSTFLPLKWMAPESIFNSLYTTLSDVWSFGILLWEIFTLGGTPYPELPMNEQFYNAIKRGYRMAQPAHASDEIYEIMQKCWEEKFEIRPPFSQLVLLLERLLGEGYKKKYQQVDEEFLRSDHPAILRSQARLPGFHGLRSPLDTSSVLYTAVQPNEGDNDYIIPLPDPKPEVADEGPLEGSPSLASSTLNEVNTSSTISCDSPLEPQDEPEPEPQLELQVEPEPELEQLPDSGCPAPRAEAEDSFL

| Structure (SMILES) | phosphorylation of MET [1] | PI3K association with GAB1 and downstream activation of AKT and S6 [2] | P-PDGFRβ [3] | phosphorylation of intended target RTK (P-MET) [4] | p-PDGFR [5] |
| --- | --- | --- | --- | --- | --- |
| Cc1ccc(NC(=O)c2ccc(CN3CCN(C)CC3)cc2)cc1Nc1nccc(-c2cccnc2)n1 [Gleevec™, Imatinib mesylate] | decrease in phosphorylation of MET | did not significantly effect PI3K activation |  |  |  |
| Cc1[nH]c(/C=C2\C(=O)Nc3ccc(S(=O)(=O)N(C)c4cccc(Cl)c4)cc32)c(C)c1C(=O)N1CCN(C)CC1 [SU11274] |  | no discernable effect | decrease in P-PDGFRβ | effectively blocked phosphorylation | diminishes p-PDGFR |
